Assay results: patent EP0444659B1, “A pharmaceutical solution comprising derivatives of FK506” (FUJISAWA PHARMACEUTICAL CO., LTD., priority 1990, dated 1991)
In brackets after ≈: the same amount, converted by molar mass.

Tests used:
Type in all cases: physicochemical
physchem = assay: physchem
Source text: From the above point of view, the inventors of the present invention studied, at first, the solubility of the compound (I) in water. As a test compound, the inventors selected the following compound as a free form which has an excellent immunosupressive activity and is called FK 506 hereafter. R^1, R^2, R^8, R^23 = hydrogen R^7, R^9 = hydroxy R^14, R^15, R^16, R^17, R^18, R^19, R^22 = methyl R^10 = allyl R^20 = R^20a,H (R^20a = methoxy) X, Y = oxygen R^21 = R^21a,H (R^21a = hydroxy) n = 2 R^3, R^4 = form a second bond between the vicinal carbon atoms to which they are attached R^5, R^6 = form a second bond between the vicinal carbon atoms to which they are attached
The solubility of FK 506 in water is at most 3 µg/ml under ambient temperature. Accordingly, it is decided to add a surface active agent in order to increase the solubility of FK 506 in water to the level where the clinically effective amount of FK 506 is dissolved. […] As a surface active agent, a castor oil-surface active agent i.e., HCO-10, HCO-40, HCO-60 (trademark, prepared by Nikko Chemicals, respectively) are selected for examination.
It is conjectured from the result shown in Table 1 that the concentration of the surface active agent should be controlled at 1.43w/v% [about 150mg of the surface active agent against 1mg of FK506] to dissolve 0.1mg of FK 506 in 1ml of water, calculating based on the result that 0.035mg of FK 506 is dissolved in 1ml of 0.5w/v% HCO-60 aqueous solution at 20 °C. Accordingly, if it is desired to prepare 5mg/ml aqueous solution FK 506, the concentration of the surface active agent is estimated to come up to 87w/v% from the calculation based on the result of HCO-60, 20w/v%, 20°C. Such […] high concentration of surface active agent in aqueous solution should not be realized in practice of clinical field.

[1] = solubility of FK 506 in nonaqueous solvents; conditions: for solubility: ambient temperature
[2] = dilution of the solution with physiological saline: clarity, turbidity and crystal separation; conditions: FK 506 5 mg/ml
Protocol: Nonaqueous solvent is, at the time of administrating into the human vascular tract, usually diluted with aqueous solvent such as physiological saline, since nonaqueous solvent has hemolysis action.
The experimental solution (1ml) of the following prescription 3 consisting of FK 506, surface active agent and nonaqueous solvent was diluted with physiological saline (100ml) to find that the clear appearance of prescription was kept unchanged.
Then several prescriptions of clear solution were further prepared altering the concentration of FK 506, the kind and the concentration of surface active agent, and were tested how change the clearity of the solution and whether separate out the crystal or not under the several condition of different degree of dilution.

C=CCC1C=C(C)CC(C)CC(OC)C2OC(O)(C(=O)C(=O)N3CCCCC3C(=O)OC(C(C)=CC3CCC(O)C(OC)C3)C(C)C(O)CC1=O)C(C)CC2OC (centres unmarked) [FK 506, 17-allyl-1,14-dihydroxy-12-[2-(4-hydroxy-3-methoxycyclohexyl)-1-methylvinyl]-23, 25-dimethoxy-13,19,21,27-tetramethyl-11, 28-dioxa-4-azatricyclo-[22.3.1.0^4.9] octacos-18-ene-2,3,10,16-tetraone]
amount of the surface active agent against 1mg of FK506 (physchem): about 150 mg | concentration of the surface active agent to prepare 5mg/ml aqueous solution FK 506 (physchem): 87 w/v% | concentration of the surface active agent to dissolve 0.1mg of FK 506 in 1ml of water (physchem; calculated from 0.035mg/ml in 0.5w/v% HCO-60 at 20 °C): 1.43 w/v% | solubility (physchem; hco-40 5 w/v% aqueous, solubility of FK506): 400 µg/mL (≈ 497 µM) | solubility (physchem; hco-40 10 w/v% aqueous, solubility of FK506): 780 µg/mL (≈ 970 µM) | solubility (physchem; hco-40 20 w/v% aqueous, solubility of FK506): 1520 µg/mL (≈ 1890 µM) | solubility (physchem; hco-60 0.1 w/v% aqueous, solubility of FK506): 5 µg/mL (≈ 6.22 µM) | solubility (physchem; hco-60 0.3 w/v% aqueous, solubility of FK506): 19 µg/mL (≈ 23.6 µM) | solubility (physchem; hco-60 0.5 w/v% aqueous, solubility of FK506): 35 µg/mL (≈ 43.5 µM) | solubility of FK506 (physchem; hco-60 5 w/v% aqueous): 290 µg/mL | solubility (physchem; hco-60 5 w/v% aqueous, solubility of FK506): 280 µg/mL (≈ 348 µM) | solubility of FK506 (physchem; hco-60 10 w/v% aqueous): 570 µg/mL | solubility (physchem; hco-60 10 w/v% aqueous, solubility of FK506): 610 µg/mL (≈ 759 µM) | solubility of FK506 (physchem; hco-60 20 w/v% aqueous): 1140 µg/mL | solubility (physchem; hco-60 20 w/v% aqueous, solubility of FK506): 1150 µg/mL (≈ 1430 µM) | solubility of FK506 (physchem; hco-60/hco-10 (4:1) 5 w/v%): 270 µg/mL | solubility (physchem; hco-60/hco-10 (4:1) 5 w/v%, solubility of FK506): 260 µg/mL (≈ 323 µM) | solubility of FK506 (physchem; hco-60/hco-10 (4:1) 10 w/v%): 560 µg/mL | solubility (physchem; hco-60/hco-10 (4:1) 10 w/v%, solubility of FK506): 560 µg/mL (≈ 696 µM) | solubility of FK506 (physchem; hco-60/hco-10 (4:1) 20 w/v%): 1140 µg/mL | solubility (physchem; hco-60/hco-10 (4:1) 20 w/v%, solubility of FK506): 1130 µg/mL (≈ 1410 µM) | solubility (physchem; water, solubility of FK 506 in water): ≤ 3 µg/mL | concentration at which FK 506 is dissolved in the experimented solvent ([1]; PEG 400, ethanol and propylene glycol (summary of Table 3)): more than 40 mg/ml | solubility ([1]; Solvent Ethanol): > 300000 µg/mL | solubility ([1]; Solvent PEG 400): > 40000 µg/mL | solubility ([1]; Solvent Propylene glycol): > 40000 µg/mL | Period till solution becomes turbid to crystallize FK506 ([2]; dilution times with physiological saline 2, Cremophor®EL, ethanol/surface active agent 35/65): ≧7 days | Period till solution becomes turbid to crystallize FK506 ([2]; dilution times with physiological saline 2, Cremophor®EL, ethanol/surface active agent 80/20): ≧7 days | Period till solution becomes turbid to crystallize FK506 ([2]; dilution times with physiological saline 2, HCO-40, ethanol/surface active agent 40/60): ≧7 days | Period till solution becomes turbid to crystallize FK506 ([2]; dilution times with physiological saline 2, HCO-40, ethanol/surface active agent 80/20): ≧7 days | Period till solution becomes turbid to crystallize FK506 ([2]; dilution times with physiological saline 2, HCO-60, ethanol/surface active agent 35/65): ≧7 days | Period till solution becomes turbid to crystallize FK506 ([2]; dilution times with physiological saline 2, HCO-60, ethanol/surface active agent 60/40): ≧7 days | Period till solution becomes turbid to crystallize FK506 ([2]; dilution times with physiological saline 2, HCO-60, ethanol/surface active agent 80/20): ≧7 days | Period till solution becomes turbid to crystallize FK506 ([2]; dilution times with physiological saline 100, Cremophor®EL, ethanol/surface active agent 35/65): ≧7 days | Period till solution becomes turbid to crystallize FK506 ([2]; dilution times with physiological saline 100, Cremophor®EL, ethanol/surface active agent 80/20): ≧7 days | Period till solution becomes turbid to crystallize FK506 ([2]; dilution times with physiological saline 100, HCO-40, ethanol/surface active agent 40/60): ≧7 days | Period till solution becomes turbid to crystallize FK506 ([2]; dilution times with physiological saline 100, HCO-40, ethanol/surface active agent 80/20): ≧7 days | Period till solution becomes turbid to crystallize FK506 ([2]; dilution times with physiological saline 100, HCO-60, ethanol/surface active agent 35/65): ≧7 days
